The values that follow come from patent publication US9221833B2, “Antiviral compounds” (GILEAD PHARMASSET LLC, priority 2011, dated 2015).

Where two headings read alike, the source gives them in different places.

What all share (type): cell-based, HCV
In test [1] the test system is genotype 1b Con1 replicon. As to the kind of experiment: microbe, parasite or virus in culture. As for the experimental part:
(§1) Evaluation of cell-based anti-HCV activity: Antiviral potency (EC50) was determined using a Renilla luciferase (RLuc)-based HCV replicon reporter assay. […] To perform the assay for genotype 2a (with M31 present in NS5A) or 2b, NS5A chimeric genotype 2a JFH-1 replicons that encodes a RLuc-Neo reporter and either genotype 2a J6 strain NS5A gene or genotype 2b MD2b-1 strain NS5A gene (both with M31 present) respectively, were either transiently transfected (t) into Huh-Lunet cells or were established as stably replicating replicon cells (s) is provided. Either cells were dispensed into 384-well plates for EC50 assays. To perform the assay for genotype 3 and 4, NS5A chimeric genotype 1b Con1 replicons that encodes a Pi-RLuc reporter and either genotype 3a S52 strain NS5A gene or genotype 4a ED43 strain NS5A gene respectively, were transiently transfected (t) into Huh-Lunet cells, which were subsequently dispensed into 384-well plates. Compounds were dissolved in DMSO at a concentration of 10 mM and diluted in DMSO either manually or using an automated pipeting instrument. Serially 3-fold diluted compounds were either manually mixed with cell culture media and added to the seeded cells or directly added to the cells using an automated instrument. […] 72 hours later, cells were lysed and Renilla luciferase activity quantified as recommended by the manufacturer (Promega-Madison, Wis.). Non-linear regression was performed to calculate EC50 values.

In test [2] the test system is genotype 2a J6 strain NS5A gene (M31 present). As to the kind of experiment: Replicon assay, NS5A chimeric 2a JFH-1 replicon with 2a J6 NS5A, transient (t) or stable (s), Huh-Lunet cells. As for the experimental part: as §1
Background: A replicon is a self-replicating genome or part of one, used to study replication in cells.

The test system of test [3] is Q30R in genotype 1a NS5A. As to the kind of experiment: Antiviral potency against resistance mutant, 1a Pi-Rluc replicon in Huh-7-derived cured-51 cells. As to conditions: genotype 1a Q30R resistance mutant, read-out: 1a Q30R. As for the experimental part:
as §1
To determine the antiviral potency (EC50) against resistance mutants, resistance mutations, including M28T, Q30R, Q30H, L31M, and Y93C in genotype 1a NS5A and Y93H in genotype 1b NS5A, were introduced individually into either 1a Pi-Rluc or 1b Pi-Rluc replicons by site directed mutagenesis. Replicon RNA of each resistant mutant was transiently transfected into Huh-7-derived cured-51 cells and antiviral potency was determined on these transfected cells as described above.

In test [4] the test system is genotype 2a JFH-1 replicon (L31 present in NS5A). As to the kind of experiment: microbe, parasite or virus in culture. As to conditions: genotype 2a JFH replicon, read-out: 2a JFH. As for the experimental part: as §1
The test system of test [5] is genotype 2b MD2b-1 strain NS5A gene (M31 present). As to the kind of experiment: microbe, parasite or virus in culture. As for the experimental part:
as §1

Test [6] concerns genotype 4a ED43 strain NS5A gene. As to the kind of experiment: Replicon assay, NS5A chimeric 1b Con1 replicon with 4a NS5A, transiently transfected Huh-Lunet cells. As for the experimental part: as §1, with “[…],” for “were transiently transfected (t) into Huh-Lunet cells,”
The test system of test [7] is genotype 3a S52 strain NS5A gene. As to the kind of experiment: Replicon assay, NS5A chimeric 1b Con1 replicon with 3a NS5A, transiently transfected Huh-Lunet cells. As to conditions: genotype 3a, read-out: 3a. As for the experimental part: as §1
The mark [8] stands for this setting: Hepatitis C virus, read-out: 1b (nM).
Where [9] appears, read: genotype 2a J6, EC50 range class, transiently transfected cells (t), if unavailable stably replicating cells (s), read-out: 2a J6.
[10] abbreviates: stably replicating cells (s), read-out: 2a J6 (s).
Where [11] appears, read: transiently transfected cells (t), read-out: 2a J6 (t).
[12] abbreviates: genotype 2b, EC50 range class, transiently transfected cells (t), if unavailable stably replicating cells (s), read-out: 2b.
Where [13] appears, read: stably replicating cells (s), read-out: 2b (s).
Setting [14] is: transiently transfected cells (t), read-out: 2b (t).
Setting [15] is: genotype 4a, EC50 range class, transiently transfected cells (t), if unavailable stably replicating cells (s), read-out: 4a.
[16] abbreviates: transiently transfected cells (t), read-out: 4a (t).
[17] abbreviates: stably replicating cells (s), read-out: 4a (s).

`COC(=O)N[C@H](C(=O)N1CCC[C@H]1c1ncc(-c2ccc3c(c2)COc2cc4c(ccc5nc([C@@H]6C[C@H](C)CN6C(=O)[C@H](NC(=O)OC)c6ccccc6)[nH]c54)cc2-3)[nH]1)C(C)C` [Example MY, Methyl {2-[2-{9-[2-(1-{2-[(methoxycarbonyl)amino]-3-methylbutanoyl}pyrrolidin-2-yl)-1H-imidazol-5-yl]-1,11-dihydroisochromeno[4′,3′:6,7]naphtho[1,2-d]imidazol-2-yl}-4-(methyl)pyrrolidin-1-yl]-2-oxo-1-phenylethyl}carbamate]: the EC50 in test [1] (setting [8]) came out at 0.015 nM.

Turning to `COC[C@@H]1C[C@@H](c2nc3ccc4cc5c(cc4c3[nH]2)OCc2cc(-c3cnc([C@@H]4CCCN4C(=O)[C@@H](NC(=O)OC)C(C)C)[nH]3)ccc2-5)N(C(=O)[C@H](NC(=O)OC)c2ccccc2)C1` [Example MQ, methyl{(1R)-2-[(2S,4R)-2-(9-{2-[(2S)-1-{(2S)-2-[(methoxycarbonyl)amino]-3-methylbutanoyl}pyrrolidin-2-yl)-1H-imidazol-5-yl]-1,11-dihydroisochromeno[4′,3′:6,7]naphtho[1,2-d]imidazol-2-yl}-4-(methoxymethyl)pyrrolidin-1-yl]-2-oxo-phenylethyl}carbamate], the EC50 was less than 1 nM in test [2] (setting [9]); 0.095 nM in test [2] (setting [10]); 0.017 nM in test [2] (setting [11]); less than 1 nM in test [3] (EC50 range class); 0.023 nM in test [3]; less than 1 nM in test [4] (EC50 range class). For the same molecule, the EC50 in test [4] is 0.004 nM; in test [1] (read-out: 1b), 0.011 nM; in test [5] (setting [12]), less than 1 nM; in test [5] (setting [13]), 0.023 nM; in test [5] (setting [14]), 0.009 nM; in test [6] (setting [15]), less than 1 nM. Further, the EC50 in test [7] (EC50 range class) is less than 1 nM; in test [7], 0.016 nM.

In the case of `COC[C@H]1C[C@@H](c2nc3ccc4cc5c(cc4c3[nH]2)OCc2cc(-c3cnc([C@@H]4C[C@H](C)CN4C(=O)[C@H](NC(=O)OC)c4ccccc4)[nH]3)ccc2-5)N(C(=O)[C@@H](NC(=O)OC)C(C)C)C1` [Example PF, methyl {1-[2-{9-[2-(1-{[(methoxycarbonyl)amino](phenyl)acetyl}-4-methylpyrrolidin-2-yl)-1H-imidazol-5-yl]-1,11-dihydroisochromeno[4′,3′:6,7]naphtho[1,2-d]imidazol-2-yl}-4-(methoxymethyl)pyrrolidin-1-yl]-3-methyl-1-oxobutan-2-yl}carbamate], the EC50 in test [1] (setting [8]) stood at 0.044 nM.

As for `COC[C@H]1C[C@@H](c2nc3c([nH]2)-c2cc4c(cc2CC3)-c2ccc(-c3cnc([C@@H]5CCCN5C(=O)[C@@H](NC(=O)OC)C(C)C)[nH]3)cc2CO4)N(C(=O)[C@H](NC(=O)OC)c2ccccc2)C1` [Example MR, methyl{(1R)-2-[(2S,4S)-2-(9-{2-[(2S)-1-{(2S)-2-[(methoxycarbonyl)amino]-3-methylbutanoyl}pyrrolidin-2-yl)-1H-imidazol-5-yl]-1,11-dihydroisochromeno[4′,3′:6,7]-4,5-dihydro-naphtho[1,2-d]imidazol-2-yl}-(methoxymethyl)pyrrolidin-1-yl]-2-oxo-1-phenylethyl}carbamate], the EC50 in test [2] (setting [9]) is less than 1 nM; in test [2] (setting [10]), 0.176 nM; in test [2] (setting [11]) it was 0.079 nM; in test [3] (EC50 range class), less than 1 nM; in test [3], 0.128 nM; in test [4] (EC50 range class) it was less than 1 nM. Further, the EC50 in test [4] was 0.017 nM; in test [1] (read-out: 1b), 0.041 nM; in test [5] (setting [12]), less than 1 nM; in test [5] (setting [13]), 0.053 nM; in test [5] (setting [14]), 0.039 nM; in test [6] (setting [15]), less than 1 nM. Besides, the EC50 was 0.045 nM in test [6] (setting [16]), less than 1 nM in test [7] (EC50 range class) and 0.078 nM in test [7].

With `COC[C@H]1C[C@@H](c2nc3ccc4cc5c(cc4c3[nH]2)OCc2cc(-c3ccc4nc([C@@H]6CCCN6C(=O)[C@@H](NC(=O)OC)C(C)C)[nH]c4c3)ccc2-5)N(C(=O)[C@H](NC(=O)OC)c2ccccc2)C1` [Example MS], the EC50 in test [2] (setting [9]) was more than 5 nM; in test [2] (setting [10]) it was 15.6 nM; in test [4] (EC50 range class), less than 1 nM; in test [4], 0.005 nM; in test [1] (read-out: 1b), 0.008 nM; in test [5] (setting [12]) it was more than 5 nM. In addition, the EC50 in test [5] (setting [13]) is 9.56 nM; in test [6] (setting [15]), less than 1 nM; in test [6] (setting [17]), 0.02 nM; in test [6] (setting [16]), 0.014 nM.

For the molecule “dimethyl (2S,2′S)-1,1′-((2 S,2′S)-2,2′l-pyrrolidin-2-yl)-5H-naphtho[c,g]chromeno[8,9-d]imidazol-9-yl)-1H-imidazol-2-yl)pyrrolidin-1-yl))bis(3-methyl-1-oxobutane-2,1-diyl)dicarbamate [Example MC]”, the EC50 was 1 to 4.99 nM in test [2] (setting [9]); 3.52 nM in test [2] (setting [10]); 1.16 nM in test [2] (setting [11]); less than 1 nM in test [3] (EC50 range class); 0.99 nM in test [3]; less than 1 nM in test [4] (EC50 range class). Further, the EC50 was 0.004 nM in test [4]; 0.017 nM in test [1] (read-out: 1b); less than 1 nM in test [5] (setting [12]); 0.375 nM in test [5] (setting [13]); 0.162 nM in test [5] (setting [14]); less than 1 nM in test [6] (setting [15]). Besides, the EC50 in test [6] (setting [17]) is 0.028 nM; in test [6] (setting [16]), 0.008 nM; in test [7] (EC50 range class), less than 1 nM; in test [7], 0.004 nM.

On to `COC(=O)N[C@H](C(=O)N1CCC[C@H]1c1ncc(-c2ccc3c(c2)COc2cc4c(cc2-3)CCc2[nH]c([C@@H]3CCCN3C(=O)[C@@H](NC(=O)OC)C(C)C)nc2-4)[nH]1)C(C)C` [Example ME], for which the EC50 was 1 to 4.99 nM in test [2] (setting [9]); 16.1 nM in test [2] (setting [10]); 3.43 nM in test [2] (setting [11]); 1 to 44 nM in test [3] (EC50 range class); 2.51 nM in test [3]; less than 1 nM in test [4] (EC50 range class). Moreover, the EC50 in test [4] is 0.012 nM; in test [1] (read-out: 1b) it was 0.049 nM; in test [5] (setting [12]) it was less than 1 nM; in test [5] (setting [13]) it was 0.701 nM; in test [5] (setting [14]) it was 0.198 nM; in test [6] (setting [15]), less than 1 nM. For the same molecule, the EC50 in test [6] (setting [17]) is 0.029 nM; in test [6] (setting [16]), 0.016 nM; in test [7] (EC50 range class), less than 1 nM; in test [7] it was 0.015 nM.

In the case of “Methyl {(2S)-1-[(2S,5S)-2-(5-{2-[(2S,4S)-1-{(2S)-2-[(methoxycarbonyl)amino]-3-methylbutanoyl}-4-methylpyrrolidin-2-yl]-1,11-dihydroisochromeno[4′,3′:6,7]naphtho[1,2-d]imidazol-9-yl}-1H-imidazol-2-yl)-4-methylpyrrolidin-1-yl]-3-methyl-1-oxobutan-2-yl}carbamate [Example ND]”, the EC50 in test [2] (setting [9]) was less than 1 nM; in test [2] (setting [10]), 2.34 nM; in test [2] (setting [11]), 0.314 nM; in test [3] (EC50 range class), less than 1 nM; in test [3], 0.057 nM; in test [4] (EC50 range class) it was less than 1 nM. Besides, the EC50 was 0.014 nM in test [4]; 0.024 nM in test [1] (read-out: 1b); less than 1 nM in test [5] (setting [12]); 1.32 nM in test [5] (setting [13]); 0.27 nM in test [5] (setting [14]); less than 1 nM in test [6] (setting [15]). The EC50 in test [6] (setting [17]) was 0.044 nM; in test [6] (setting [16]), 0.031 nM; in test [7] (EC50 range class) it was less than 1 nM; in test [7], 0.035 nM.
